Test results reported in US12233129B2, “Methods and compositions for the treatment of cancer” (priority 2019, dated 2025).
“Also recorded” adds a separate entry of the source.

Legend:
[1] = tested on: SW-48 (WT-p53) colon cancer cells; assay: Cell viability / clonogenic survival with and without mot-2 inhibitor MKT-077; format: cell-based, human; design: dose or concentration left out as unconfirmed
Method: We decided to confirm whether VTD-induced tumor suppression is indeed mediated via the UBXN2A-mot-2-p53 axis (FIG. 18H). After initial verification with WB (FIG. 18A), HCT-116 (p53+/+ and p53 −/−) and LoVo were treated with VTD for 24, 48, and 72 hours (FIG. 18B-D). […] We defined this phenomenon as a delayed cytotoxic response, since it occurs through UBXN2A transcription, as previously described for other anti-cancer agents. […] In the second set of experiments, we treated two stable UBXN2A silenced clones of HCT-116 along with controls with VTD. […] Staurosporine-treated cells were used as a positive control (S4F). […] Finally, to understand the contribution of mot-2 to the anti-cancer mechanism of VTD, we used a mot-2 inhibitor known as MKT-077 [7] along with VTD in well-differentiated SW-48 (WT-p53) colon cancer cells for 72 hours. Due to the critical role of mot-2 in the mitochondria, we could not use a silencing strategy for mot-2 in this set of experiments.
FIG. 18: Veratridine (VTD) functions via the UBXN2A-mot-2-p53 axis. (A) WB confirmed the presence and the absence of p53 protein in HCT-116 p53^(+/+) and HCT-116 p53^(−/−) cancer cell lines, respectively. […] (F) In another set of experiments, UBXN2A-silenced cells were treated with VTD (100, 200, and 300 μM) for 24 hours. Cells were then labelled with Sytox Red followed by flow cytometry analysis. […] (G) SW48 well-differentiated colon cancer cells with WT-p53 were treated with MKT-077 (5 mg/ml), an mot-2 inhibitor, along with VTD for 72 hours. […] (H) This flowchart recapped the sequence of proteins which activate and function upon VTD exposure to decrease cell viability. The data is shown as mean±SEM of three independent experiments (n=3) in triplicate where *p<0.05 using Benferroni's modified student's t-test.

HCT-116 [2] = assay: Annexin V early apoptosis, VTD plus etoposide; format: cell-based, human; conditions: VTD 10-200 μM plus etoposide 5 μM, 24 hours
Method: (§1) The viability of cells was calculated as % of control.
(§2) Cells were then stained with Annexin V apoptotic marker.

LoVo [3] = assay: Annexin V early apoptosis, VTD plus etoposide; format: cell-based, human; conditions: VTD 10-200 μM plus etoposide 5 μM, 24 hours
Method: as §1, §2

HCT-116 [4] = format: cell-based, human; conditions: 10 days
Method: (§3) Because colon cancer cells develop resistance to chemotherapy after an initial response, we decided to investigate whether VTD can potentiate the cytotoxic effect of 5-FU when cells receiving long-term therapy mimicking the in vivo therapy. Cells were treated with VTD for 10 days.
(§4) Based on the significant effect of long-term exposure in LoVo and U2OS, we hypothesized that VTD could be a potential complementary strategy alongside 5-FU, an effective drug with a high rate of resistant events in colon tumors. To answer this question, we first determined the minimum concentration of 5-FU that has no effect or a very mild effect on cell viability after 10 days' exposure in three cell lines HCT-116, LoVo, and U2OS (data not shown). We performed the 10 days' treatment using a combination of a low dose of VTD (50 μM or 100 μM) plus a suboptimal dose of 5-FU (1 μM or 5 μM).
(§5) FIG. 20: Sensitization of colon cancer cells to a long-term suboptimal dose of 5-fluorouracil exposure when combined with VTD. (A-D) (A) HCT-116, (B) LoVo, (C) SW-480, and (D) U2OS were treated with VTD (10-300 μM) for 10 days. […] (E-G) (E) HCT-116, (F) LoVo, and (G) U-2OS were treated with suboptimal doses of 5-FU and VTD (50 and 100 μM) for 10 days. […] (H-I) A series of flow cytometry assays using an antibody against the CD44 cancer stem cell marker illustrated that VTD can target CD44+ colon cancer stem cells and eventually eliminate them in a dose-dependent manner, implicating VTD as a potential cancer stem cell-targeting therapy. (J) Tumor tissue lysates from 48 patients with colon cancer along the matched adjacent normal colon tissue lysates were probed with anti-UBXN2A and anti-Actin antibodies, followed by quantitation and normalization of signals. […] (I) The proposed mechanism action of VTD. VTD increases the expression of UBXN2A, which releases the p53 from mot-2's sequestration and, together with standard chemotherapy, can cause an effective tumor suppression.

LoVo [5] = format: cell-based, human; conditions: 10 days
Method: as §3, §4, §5

U2OS = format: cell-based, human; conditions: 10 days
Method: as §3, §4, §5

SW480 = assay: Long-term (10 days) exposure colony formation / cell viability; format: cell-based, human; conditions: VTD 10-300 μM, mutant p53
Method: as §3, §5

[6] = tested on: HCT-116-iRFP cancer cells; assay: HCT-116-iRFP xenograft mouse model; format: in vivo, Hsd:Athymic Nude-Foxn1nu mice; conditions: IP 0.1 mg/kg every other day for 5 weeks versus Ethanol
Method: Five week Hsd:Athymic Nude-Foxn1^nu mice were implanted with 1×10^6 HCT-116-iRFP cancer cells at both flanks followed by IP injection of Ethanol (con) or Veratridine (VTD-0.1 mg/kg) every other day for 5 weeks. Twelve mice were used per treatment with 6 males and 6 females in each group.

[7] = VTD 50 or 100 μM plus 5-FU 1 or 5 μM

COc1ccc(C(=O)O[C@H]2CC[C@@]3(C)[C@@H]4CC[C@H]5[C@]6(O)C[C@H](O)[C@@]7(O)[C@@H](CN8C[C@@H](C)CC[C@H]8[C@@]7(C)O)[C@]6(O)C[C@@]53O[C@]24O)cc1OC [VTD, Veratridine]
cell viability / colony number ([1]; VTD alone, 72 hours): significantly decreased cell viability in a dose-dependent manner; also recorded: signifcantly decreases the colony number
cell viability / colony number ([1]; VTD with mot-2 inhibitor MKT-077, 72 hours): no significant effect on cell viability
early apoptosis (Annexin V) (HCT-116 [2]): significantly increased the early apoptosis
early apoptosis (Annexin V) (LoVo [3]): significantly increased the early apoptosis
cell viability, long-term exposure (HCT-116 [4]; VTD 10-300 μM): only responded to a high concentration of VTD
cytotoxic effect of suboptimal 5-FU in presence of VTD (HCT-116 [4]; [7]): significantly potentiated the cytotoxic effect of the suboptimal dose of 5-FU
cell viability, long-term exposure (LoVo [5]; VTD 10-300 μM): significant decrease in cell viability in a dose-dependent manner
cytotoxic effect of suboptimal 5-FU in presence of VTD (LoVo [5]; [7]): significantly potentiated the cytotoxic effect of the suboptimal dose of 5-FU
cell viability, long-term exposure (U2OS; VTD 10-300 μM): significant decrease in cell viability in a dose-dependent manner
cytotoxic effect of suboptimal 5-FU in presence of VTD (U2OS; [7]): significantly potentiated the cytotoxic effect of the suboptimal dose of 5-FU
cell viability, long-term exposure (SW480): no response
growth of tumor [6]: slowdown growth of tumor
